These results are taken from ChEMBL document CHEMBL5649166, “RIP3 induces apoptosis independent of pronecrotic kinase activity” (Mol Cell, 2014).

Each structure is given as a SMILES string. Activity calls are given as the source filed them. The rule behind the calls is not given here.

Assay [1] concerns the target T1, Cytoplasmic tyrosine-protein kinase BMX (Homo sapiens) (UniProt P51813).
T1 sequence (whole entry): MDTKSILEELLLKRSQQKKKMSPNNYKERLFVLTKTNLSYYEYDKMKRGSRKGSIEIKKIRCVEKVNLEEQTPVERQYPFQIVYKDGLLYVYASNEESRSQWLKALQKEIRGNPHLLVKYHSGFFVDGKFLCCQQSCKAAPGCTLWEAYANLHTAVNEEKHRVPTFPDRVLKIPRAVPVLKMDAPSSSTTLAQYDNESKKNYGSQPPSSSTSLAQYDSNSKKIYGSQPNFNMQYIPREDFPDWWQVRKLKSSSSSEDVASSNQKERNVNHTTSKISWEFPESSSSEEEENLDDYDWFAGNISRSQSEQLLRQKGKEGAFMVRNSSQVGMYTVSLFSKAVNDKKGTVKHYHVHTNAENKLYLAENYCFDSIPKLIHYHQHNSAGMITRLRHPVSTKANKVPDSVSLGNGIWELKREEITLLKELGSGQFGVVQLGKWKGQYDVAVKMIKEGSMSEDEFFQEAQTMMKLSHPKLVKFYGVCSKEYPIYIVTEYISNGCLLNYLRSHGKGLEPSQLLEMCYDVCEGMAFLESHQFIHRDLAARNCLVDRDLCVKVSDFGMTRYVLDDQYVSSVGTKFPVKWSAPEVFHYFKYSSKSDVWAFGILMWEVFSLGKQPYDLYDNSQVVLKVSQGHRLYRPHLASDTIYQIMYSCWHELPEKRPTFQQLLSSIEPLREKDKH
Put plainly: Inhibition of human BMX/ETK using poly[Glu:Tyr] (4:1) as substrate at 1 uM in presence of 32P-ATP by Hotspot assay relative to control; values are per cent of control.

The target in assay [2] is Serine/threonine-protein kinase WNK2 (Homo sapiens) (UniProt Q9Y3S1). Put plainly: Inhibition of human WNK2 using myelin basic protein as substrate at 1 uM in presence of 32P-ATP by Hotspot assay relative to control; values are per cent of control.
In assay [3] the target is T2, Serine/threonine-protein kinase Nek9 (Homo sapiens) (UniProt Q8TD19).
T2 sequence (whole entry): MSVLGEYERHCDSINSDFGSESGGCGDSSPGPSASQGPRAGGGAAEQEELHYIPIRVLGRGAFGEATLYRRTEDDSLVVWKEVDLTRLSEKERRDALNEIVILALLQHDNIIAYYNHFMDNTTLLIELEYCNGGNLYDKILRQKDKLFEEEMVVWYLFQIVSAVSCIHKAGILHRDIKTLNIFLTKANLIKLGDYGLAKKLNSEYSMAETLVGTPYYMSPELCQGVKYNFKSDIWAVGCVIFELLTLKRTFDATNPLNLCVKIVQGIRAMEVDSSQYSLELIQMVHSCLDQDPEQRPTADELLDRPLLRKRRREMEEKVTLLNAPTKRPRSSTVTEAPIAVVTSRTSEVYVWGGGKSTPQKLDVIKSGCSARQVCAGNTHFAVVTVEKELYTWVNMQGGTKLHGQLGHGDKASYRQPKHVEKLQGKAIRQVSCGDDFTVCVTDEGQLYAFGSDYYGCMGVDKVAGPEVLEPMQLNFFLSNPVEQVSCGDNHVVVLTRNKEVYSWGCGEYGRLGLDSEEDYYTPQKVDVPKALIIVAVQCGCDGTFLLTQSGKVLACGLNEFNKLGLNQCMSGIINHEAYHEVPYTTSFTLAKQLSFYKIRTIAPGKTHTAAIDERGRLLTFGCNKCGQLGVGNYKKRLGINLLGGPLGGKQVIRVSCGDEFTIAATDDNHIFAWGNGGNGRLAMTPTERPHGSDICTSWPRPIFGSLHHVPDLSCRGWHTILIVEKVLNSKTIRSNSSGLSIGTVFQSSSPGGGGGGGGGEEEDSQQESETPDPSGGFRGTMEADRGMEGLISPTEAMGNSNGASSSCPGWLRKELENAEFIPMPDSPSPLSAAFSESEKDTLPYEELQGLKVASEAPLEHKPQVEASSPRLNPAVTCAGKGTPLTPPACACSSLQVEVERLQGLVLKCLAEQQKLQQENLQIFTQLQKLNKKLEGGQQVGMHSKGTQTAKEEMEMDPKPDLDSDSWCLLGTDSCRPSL
Put plainly: Inhibition of human NEK9 using myelin basic protein as substrate at 1 uM in presence of 32P-ATP by Hotspot assay relative to control; values are per cent of control.

Assay [4] relates to Peritoneal macrophage cell. The assay is described as follows: Inhibition of TNF-alpha induced necroptosis in thioglycolate-elicited mouse peritoneal macrophage assessed as increase in cell viability at 0.04 to 1 uM incubated for 24 hrs in presence of zVAD and SMAC007 by Cell Titer-Glo luminescent cell viability assay. The class given is functional, cell-based. The note with it: dose 0.04-1 µM.

Assay [5] addresses T3, Tyrosine-protein kinase ITK/TSK (Homo sapiens) (UniProt Q08881).
T3 sequence (whole entry): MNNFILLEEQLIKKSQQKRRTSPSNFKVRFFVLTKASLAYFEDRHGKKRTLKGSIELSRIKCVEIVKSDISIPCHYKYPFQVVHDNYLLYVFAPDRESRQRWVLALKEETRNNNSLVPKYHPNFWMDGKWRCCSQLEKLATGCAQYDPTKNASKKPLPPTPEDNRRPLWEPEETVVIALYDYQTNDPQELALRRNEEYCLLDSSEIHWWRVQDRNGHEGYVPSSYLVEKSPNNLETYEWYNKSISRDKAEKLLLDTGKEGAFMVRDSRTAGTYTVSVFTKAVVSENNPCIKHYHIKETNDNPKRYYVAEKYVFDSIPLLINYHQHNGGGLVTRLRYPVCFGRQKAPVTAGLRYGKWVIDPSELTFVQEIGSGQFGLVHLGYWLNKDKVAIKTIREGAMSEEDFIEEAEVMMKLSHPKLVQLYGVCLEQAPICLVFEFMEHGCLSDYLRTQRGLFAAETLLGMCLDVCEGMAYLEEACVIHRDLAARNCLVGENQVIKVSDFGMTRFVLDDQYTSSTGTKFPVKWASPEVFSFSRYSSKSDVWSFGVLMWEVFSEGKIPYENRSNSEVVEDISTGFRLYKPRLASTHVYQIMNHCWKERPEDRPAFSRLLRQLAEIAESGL
Put plainly: Inhibition of human ITK using myelin basic protein as substrate at 1 uM in presence of 32P-ATP by Hotspot assay relative to control; values are per cent of control.

Assay [6] addresses RAC-beta serine/threonine-protein kinase (Homo sapiens) (UniProt P31751). Put plainly: Inhibition of human AKT2 using KGSGSGRPRTSSFAEG as substrate at 1 uM in presence of 32P-ATP by Hotspot assay relative to control; values are per cent of control.
Assay [7] concerns the target Myosin light chain kinase, smooth muscle (Homo sapiens) (UniProt Q15746). The assay is described as follows: Inhibition of human MLCK/MYLK using KKLNRTLSFAEPG as substrate at 1 uM in presence of 32P-ATP by Hotspot assay relative to control; values are per cent of control.

Myosin light chain kinase, smooth muscle (Homo sapiens), sequence (Q15746 whole entry): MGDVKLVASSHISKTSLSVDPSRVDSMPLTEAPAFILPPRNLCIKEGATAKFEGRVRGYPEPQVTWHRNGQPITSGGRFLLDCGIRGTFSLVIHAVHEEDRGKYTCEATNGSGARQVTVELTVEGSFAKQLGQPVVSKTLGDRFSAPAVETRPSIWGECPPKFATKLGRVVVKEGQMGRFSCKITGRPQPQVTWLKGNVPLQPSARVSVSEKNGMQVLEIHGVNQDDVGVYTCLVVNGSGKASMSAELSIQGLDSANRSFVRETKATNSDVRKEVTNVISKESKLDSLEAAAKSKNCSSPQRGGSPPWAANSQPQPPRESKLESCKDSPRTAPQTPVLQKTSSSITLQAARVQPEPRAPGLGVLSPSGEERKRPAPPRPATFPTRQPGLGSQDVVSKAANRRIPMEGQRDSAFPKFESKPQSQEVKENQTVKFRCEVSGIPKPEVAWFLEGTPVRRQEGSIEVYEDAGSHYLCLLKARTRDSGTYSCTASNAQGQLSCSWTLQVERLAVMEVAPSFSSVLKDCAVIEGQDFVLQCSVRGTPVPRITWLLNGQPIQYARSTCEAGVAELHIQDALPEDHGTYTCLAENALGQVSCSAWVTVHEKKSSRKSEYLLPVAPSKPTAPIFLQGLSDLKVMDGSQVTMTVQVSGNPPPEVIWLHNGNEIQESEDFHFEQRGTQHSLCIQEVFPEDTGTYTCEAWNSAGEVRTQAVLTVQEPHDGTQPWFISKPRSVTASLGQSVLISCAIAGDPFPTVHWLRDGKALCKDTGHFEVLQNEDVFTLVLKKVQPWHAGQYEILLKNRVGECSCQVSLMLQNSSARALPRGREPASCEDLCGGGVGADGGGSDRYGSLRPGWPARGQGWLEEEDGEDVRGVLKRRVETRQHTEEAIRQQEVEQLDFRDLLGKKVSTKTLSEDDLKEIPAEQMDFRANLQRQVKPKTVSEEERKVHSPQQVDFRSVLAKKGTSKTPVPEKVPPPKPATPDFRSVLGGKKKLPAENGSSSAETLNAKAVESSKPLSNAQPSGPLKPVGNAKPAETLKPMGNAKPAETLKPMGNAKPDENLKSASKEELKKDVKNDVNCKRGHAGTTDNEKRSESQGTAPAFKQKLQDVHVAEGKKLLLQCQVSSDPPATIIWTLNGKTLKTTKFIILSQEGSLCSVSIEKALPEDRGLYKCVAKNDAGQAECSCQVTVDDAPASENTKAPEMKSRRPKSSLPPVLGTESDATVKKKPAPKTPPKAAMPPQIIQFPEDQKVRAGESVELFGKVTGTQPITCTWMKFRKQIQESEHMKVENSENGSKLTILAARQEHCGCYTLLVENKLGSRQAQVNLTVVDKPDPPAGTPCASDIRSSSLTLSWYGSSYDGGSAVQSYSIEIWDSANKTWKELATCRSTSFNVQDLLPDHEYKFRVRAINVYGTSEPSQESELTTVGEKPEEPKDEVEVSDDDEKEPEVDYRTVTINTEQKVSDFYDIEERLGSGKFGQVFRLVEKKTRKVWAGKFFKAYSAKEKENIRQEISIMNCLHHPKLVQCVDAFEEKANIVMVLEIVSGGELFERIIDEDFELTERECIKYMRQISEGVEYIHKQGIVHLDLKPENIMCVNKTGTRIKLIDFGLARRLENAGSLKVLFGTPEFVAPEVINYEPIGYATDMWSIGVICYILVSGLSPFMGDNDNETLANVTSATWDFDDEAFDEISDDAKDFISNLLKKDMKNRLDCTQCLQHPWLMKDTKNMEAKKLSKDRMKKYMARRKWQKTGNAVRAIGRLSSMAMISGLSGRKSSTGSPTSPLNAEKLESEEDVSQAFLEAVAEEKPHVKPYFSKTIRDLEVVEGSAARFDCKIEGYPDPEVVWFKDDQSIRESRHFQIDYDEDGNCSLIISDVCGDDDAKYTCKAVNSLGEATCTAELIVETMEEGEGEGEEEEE
RAC-beta serine/threonine-protein kinase (Homo sapiens), sequence (P31751 whole entry): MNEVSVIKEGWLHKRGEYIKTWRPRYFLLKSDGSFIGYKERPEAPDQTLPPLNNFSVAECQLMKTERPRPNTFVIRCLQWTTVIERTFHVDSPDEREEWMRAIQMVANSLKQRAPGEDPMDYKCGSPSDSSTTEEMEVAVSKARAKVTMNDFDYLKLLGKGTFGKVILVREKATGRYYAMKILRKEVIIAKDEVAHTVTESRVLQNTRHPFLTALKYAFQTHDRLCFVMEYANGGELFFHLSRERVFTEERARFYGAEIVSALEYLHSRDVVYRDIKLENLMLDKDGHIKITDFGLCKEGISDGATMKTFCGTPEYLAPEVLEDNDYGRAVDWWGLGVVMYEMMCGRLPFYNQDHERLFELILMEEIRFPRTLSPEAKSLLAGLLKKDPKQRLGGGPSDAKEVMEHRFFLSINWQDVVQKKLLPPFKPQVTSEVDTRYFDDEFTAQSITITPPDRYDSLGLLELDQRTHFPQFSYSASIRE
Serine/threonine-protein kinase WNK2 (Homo sapiens), sequence (Q9Y3S1 whole entry): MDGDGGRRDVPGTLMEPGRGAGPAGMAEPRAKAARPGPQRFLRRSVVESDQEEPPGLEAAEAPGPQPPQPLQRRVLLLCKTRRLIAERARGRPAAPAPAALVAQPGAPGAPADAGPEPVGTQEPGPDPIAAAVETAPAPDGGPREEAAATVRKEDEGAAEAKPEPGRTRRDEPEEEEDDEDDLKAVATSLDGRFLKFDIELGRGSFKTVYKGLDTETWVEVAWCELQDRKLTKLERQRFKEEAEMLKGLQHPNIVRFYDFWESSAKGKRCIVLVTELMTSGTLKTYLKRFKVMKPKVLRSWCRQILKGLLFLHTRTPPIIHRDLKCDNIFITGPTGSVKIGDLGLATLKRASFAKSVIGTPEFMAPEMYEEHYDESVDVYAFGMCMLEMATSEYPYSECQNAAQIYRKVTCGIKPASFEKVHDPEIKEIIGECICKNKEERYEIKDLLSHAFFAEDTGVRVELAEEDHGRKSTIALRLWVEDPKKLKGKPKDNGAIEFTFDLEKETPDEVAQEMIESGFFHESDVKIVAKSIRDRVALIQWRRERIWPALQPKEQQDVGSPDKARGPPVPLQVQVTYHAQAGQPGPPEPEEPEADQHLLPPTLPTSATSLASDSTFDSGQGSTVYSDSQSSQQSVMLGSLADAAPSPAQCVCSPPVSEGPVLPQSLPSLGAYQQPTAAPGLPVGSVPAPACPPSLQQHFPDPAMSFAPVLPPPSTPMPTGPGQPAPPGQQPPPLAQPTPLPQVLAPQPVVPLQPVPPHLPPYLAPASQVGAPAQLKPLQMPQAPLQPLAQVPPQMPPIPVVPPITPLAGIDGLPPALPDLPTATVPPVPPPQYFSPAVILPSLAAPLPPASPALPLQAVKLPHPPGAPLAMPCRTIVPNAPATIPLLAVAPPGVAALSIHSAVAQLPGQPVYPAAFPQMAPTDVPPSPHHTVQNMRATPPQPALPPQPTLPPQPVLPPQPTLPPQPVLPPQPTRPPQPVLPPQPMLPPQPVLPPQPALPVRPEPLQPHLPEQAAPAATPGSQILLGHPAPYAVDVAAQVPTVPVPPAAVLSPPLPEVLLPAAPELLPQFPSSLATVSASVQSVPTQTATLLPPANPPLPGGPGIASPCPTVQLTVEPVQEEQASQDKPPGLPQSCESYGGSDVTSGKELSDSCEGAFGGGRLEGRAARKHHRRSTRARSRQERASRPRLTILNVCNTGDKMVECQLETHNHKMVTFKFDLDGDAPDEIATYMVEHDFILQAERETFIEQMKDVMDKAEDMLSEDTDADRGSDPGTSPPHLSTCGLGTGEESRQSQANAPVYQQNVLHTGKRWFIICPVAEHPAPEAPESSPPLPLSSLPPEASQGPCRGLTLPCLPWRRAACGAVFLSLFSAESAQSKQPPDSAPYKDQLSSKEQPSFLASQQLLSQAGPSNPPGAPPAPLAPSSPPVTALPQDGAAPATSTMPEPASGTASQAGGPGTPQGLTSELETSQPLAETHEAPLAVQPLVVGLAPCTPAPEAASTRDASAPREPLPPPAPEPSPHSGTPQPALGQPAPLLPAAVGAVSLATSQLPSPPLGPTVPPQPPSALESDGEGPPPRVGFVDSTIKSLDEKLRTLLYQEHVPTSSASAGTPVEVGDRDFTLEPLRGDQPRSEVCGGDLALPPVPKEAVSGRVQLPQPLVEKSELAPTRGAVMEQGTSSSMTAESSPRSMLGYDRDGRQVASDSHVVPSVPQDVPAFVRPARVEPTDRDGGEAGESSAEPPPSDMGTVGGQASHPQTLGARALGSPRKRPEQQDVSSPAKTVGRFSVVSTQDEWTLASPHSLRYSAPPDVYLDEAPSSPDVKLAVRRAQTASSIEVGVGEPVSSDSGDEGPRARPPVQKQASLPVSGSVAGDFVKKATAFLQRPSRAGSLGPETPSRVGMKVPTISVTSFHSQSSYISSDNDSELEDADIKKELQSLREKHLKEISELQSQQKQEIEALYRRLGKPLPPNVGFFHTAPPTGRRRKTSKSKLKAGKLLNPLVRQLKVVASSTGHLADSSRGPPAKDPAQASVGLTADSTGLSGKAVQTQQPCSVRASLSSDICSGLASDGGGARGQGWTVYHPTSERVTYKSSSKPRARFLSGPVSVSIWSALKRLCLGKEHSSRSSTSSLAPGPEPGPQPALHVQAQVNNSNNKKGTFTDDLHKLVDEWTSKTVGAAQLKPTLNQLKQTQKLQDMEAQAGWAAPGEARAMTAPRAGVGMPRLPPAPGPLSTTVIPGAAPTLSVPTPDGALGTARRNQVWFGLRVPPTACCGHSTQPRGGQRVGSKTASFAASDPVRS

The residual activity is the signal under treatment as a percentage of the control signal. As to `CNC(=O)c1ccc2c(c1)ncn2-c1ccc(CC(=O)OC(C)(C)C)cc1`, the residual activity in assay [1] came out at 83.5%; in assay [2], 97.9%; in assay [3] it was 102%; in assay [5] it was 99%; in assay [6], 96.8%; in assay [7], 97.7%. In assay [4], the inhibition entry is “inactive”.

`Cc1cc(-c2cnc(N)c3c(-c4ccc5scnc5c4)csc23)n(C)n1`: the residual activity in assay [1] turned out to be 91.1%; in assay [2] it was 98.9%; in assay [3], 91%; in assay [5], 98.3%; in assay [6], 95.4%; in assay [7] it was 95.3%. Also, the inhibition result in assay [4] was “Active”.

Consider `CC(C)S(=O)(=O)c1ccc2nccc(Nc3ccc4scnc4c3)c2c1`, for which the residual activity came to 69.9% in assay [1]; 103% in assay [2]; 86.7% in assay [3]; 104% in assay [5]; 89% in assay [6]; 97.9% in assay [7]. The inhibition entry in assay [4] was “Active”.
